In US12679878B2, “CRF2 receptor agonists and their use in therapy” (SANOFI, priority 2020, dated 2026):
Like-named read-outs stand apart in the source and are kept apart here. Starred links: 1 amine or outer side, 2 acyl side, 3 side chain; linkers in the order of their positions; H or OH if unused. Non-standard residues stand in square brackets, D forms with d. Residues, ends and D or L forms follow the SMILES beside them. Groups on a side chain read outwards from the residue. *: point of attachment. C18 diacid = O=C(O)CCCCCCCCCCCCCCCCC(=O)*; γGlu = O=C(O)[C@H](CCC(=O)[*:2])N[*:1]; AEEA = NCCOCCOCC(=O)O; Aib = CC(C)(N)C(=O)O

Assays:
[1] = molecular target: T1, CRF1R receptor (Homo sapiens, UniProt P34998); assay: cAMP activity at anti-target CRF1R, CHO-K1 cell line clone 2 (Example 19.10); format: cell-based; conditions: CRF1R CHO-K1 clone 2; for EC50: 0% HSA, read-out: EC50 [nM] 0% HSA; for Emax: 100% = Sauvagine at 100 nM
T1 construct: host or cells: CHO-K1 clone 2
T1 sequence (P34998 24-415): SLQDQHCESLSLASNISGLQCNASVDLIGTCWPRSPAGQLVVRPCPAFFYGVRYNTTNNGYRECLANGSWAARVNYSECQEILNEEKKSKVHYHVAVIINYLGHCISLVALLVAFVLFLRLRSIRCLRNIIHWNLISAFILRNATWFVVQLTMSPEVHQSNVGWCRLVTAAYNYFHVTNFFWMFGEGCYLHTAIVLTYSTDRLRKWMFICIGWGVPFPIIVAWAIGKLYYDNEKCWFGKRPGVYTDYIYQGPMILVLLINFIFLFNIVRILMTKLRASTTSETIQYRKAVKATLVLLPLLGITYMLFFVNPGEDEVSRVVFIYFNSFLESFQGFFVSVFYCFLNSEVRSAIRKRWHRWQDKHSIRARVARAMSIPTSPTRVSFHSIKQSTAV
How it was run: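 A CRF1R-overexpressing CHO-K1 line (clone 2) was grown in F12/10% FBS/G418 and frozen in aliquots before use. The cAMP assay followed the preceding procedure, with 100% activation defined by Sauvagine at 100 nM.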

[2] = molecular target: T2, human CRF2α receptor (Homo sapiens, UniProt Q13324); assay: cAMP agonism at human CRF2 α receptor in TeloHEAC cells (Example 7); format: cell-based; conditions: cAMP HTRF, TeloHEAC cells stably expressing human CRF2 α
T2 construct: expressed in transfected cells; host or cells: TeloHEAC
T2 sequence (Q13324 1-411): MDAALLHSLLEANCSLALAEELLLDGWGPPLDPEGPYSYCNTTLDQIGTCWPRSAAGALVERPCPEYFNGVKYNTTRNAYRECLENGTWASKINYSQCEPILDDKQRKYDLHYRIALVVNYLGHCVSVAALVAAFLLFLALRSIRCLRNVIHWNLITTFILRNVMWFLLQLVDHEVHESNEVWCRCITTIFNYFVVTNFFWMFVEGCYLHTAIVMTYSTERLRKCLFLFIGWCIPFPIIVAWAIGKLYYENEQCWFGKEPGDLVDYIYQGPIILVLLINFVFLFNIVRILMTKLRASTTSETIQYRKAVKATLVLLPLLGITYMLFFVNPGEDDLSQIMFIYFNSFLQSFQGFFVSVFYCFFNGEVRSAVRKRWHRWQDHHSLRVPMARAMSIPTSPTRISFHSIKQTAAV
How it was run: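 Thawed frozen stably transfected cells in HBSS/20 mM HEPES (0% or 0.1% HSA) plus 2 mM IBMX were exposed to compound at 2000 cells/well for 30 min at room temperature. Intracellular cAMP was read by HTRF (665/620 nm ratio) after 1 h lysis; EC50 was derived with 1000 nM urocortin 2 set as 100%.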

[3] = 0% HSA, read-out: EC50 [nM], 0% HSA

Row | EC50 [1] [nM] | Emax [1] [%] | EC50 [2, 3] [nM] | EC50 ([2]; 0.1% HSA, read-out: EC50 [nM], 0.1% HSA) [nM] | Compound
1 | > 100 | 5.1 | 0.53 | 13.2 | CC[C@H](C)[C@H](N)C(=O)N[C@H](C(=O)N[C@@H](CC(C)C)C(=O)N[C@@H](CO)C(=O)N[C@@H](CC(C)C)C(=O)N[C@@H](CC(=O)O)C(=O)N[C@H](C(=O)N1CCC[C@H]1C(=O)N[C@H](C(=O)N[C@@H](CCCCN)C(=O)N[C@@H](CC(C)C)C(=O)N[C@@H](CCCCNC(=O)COCCOCCNC(=O)COCCOCCNC(=O)CC[C@H](NC(=O)CCCCCCCCCCCCCCCCC(=O)O)C(=O)O)C(=O)N[C@@H](CCC(N)=O)C(=O)N[C@H](C(=O)N[C@@H](CC(C)C)C(=O)N[C@@H](CC(C)C)C(=O)N[C@@H](CCC(=O)O)C(=O)N[C@@H](CCC(N)=O)C(=O)N[C@@H](CCC(=O)O)C(=O)N[C@@H](CCCNC(=N)N)C(=O)N[C@@H](CCC(N)=O)C(=O)N[C@@H](CCCCN)C(=O)NC(C)(C)C(=O)N[C@@H](CCC(N)=O)C(=O)N[C@@H](CCCNC(=N)N)C(=O)N[C@@H](CCC(=O)O)C(=O)N[C@@H](CCC(N)=O)C(=O)N[C@@H](C)C(=O)N[C@@H](CCC(=O)O)C(=O)N[C@H](C(=O)N[C@@H](CC(N)=O)C(=O)N[C@@H](CCCCN)C(=O)N[C@@H](CCC(N)=O)C(=O)N[C@H](C(=O)N[C@@H](CC(C)C)C(=O)N[C@@H](CCC(=O)O)C(=O)N[C@@H](CCCNC(=N)N)C(=O)N[C@H](C(N)=O)C(C)C)[C@@H](C)CC)[C@@H](C)O)[C@@H](C)CC)[C@@H](C)CC)C(C)C)C(C)C [compound 106] (H-IVLSLDVPIKLK([AEEA-AEEA-γGlu-C18 diacid])QILLEQERQK[Aib]QREQAETNKQILERV-NH2)
2 | > 100 | -2 | 0.23 | – | CC[C@H](C)[C@H](N)C(=O)N[C@H](C(=O)N[C@@H](CC(C)C)C(=O)N[C@@H](CO)C(=O)N[C@@H](CC(C)C)C(=O)N[C@@H](CC(=O)O)C(=O)N[C@H](C(=O)N1CCC[C@H]1C(=O)N[C@H](C(=O)N[C@@H](CCCCN)C(=O)N[C@@H](CC(C)C)C(=O)N[C@@H](CCCCNC(=O)COCCOCCNC(=O)COCCOCCNC(=O)CC[C@H](NC(=O)CCCCCCCCCCCCCCCCC(=O)O)C(=O)O)C(=O)N[C@@H](CCC(N)=O)C(=O)N[C@H](C(=O)N[C@@H](CC(C)C)C(=O)N[C@@H](CC(C)C)C(=O)N[C@@H](CCCCN)C(=O)N[C@@H](CCC(N)=O)C(=O)N[C@@H](CCC(=O)O)C(=O)N[C@@H](CCCNC(=N)N)C(=O)N[C@@H](CCC(N)=O)C(=O)N[C@@H](CCCCN)C(=O)NC(C)(C)C(=O)N[C@@H](CCC(N)=O)C(=O)N[C@@H](CCCNC(=N)N)C(=O)N[C@@H](CCC(N)=O)C(=O)N[C@@H](CCCCN)C(=O)N[C@@H](C)C(=O)N[C@@H](CCC(=O)O)C(=O)N[C@H](C(=O)N[C@@H](CC(N)=O)C(=O)N[C@@H](CCCCN)C(=O)N[C@@H](CCC(N)=O)C(=O)N[C@H](C(=O)N[C@@H](CC(C)C)C(=O)N[C@@H](C)C(=O)N[C@@H](CCC(N)=O)C(=O)N[C@H](C(N)=O)C(C)C)[C@@H](C)CC)[C@@H](C)O)[C@@H](C)CC)[C@@H](C)CC)C(C)C)C(C)C [compound 108] (H-IVLSLDVPIKLK([AEEA-AEEA-γGlu-C18 diacid])QILLKQERQK[Aib]QRQKAETNKQILAQV-NH2; N-terminus assumed)
3 | > 100 | 1.1 | 0.95 | – | CC[C@H](C)[C@H](N)C(=O)N[C@H](C(=O)N[C@@H](CC(C)C)C(=O)N[C@@H](CO)C(=O)N[C@@H](CC(C)C)C(=O)N[C@@H](CC(=O)O)C(=O)N[C@H](C(=O)N1CCC[C@H]1C(=O)N[C@H](C(=O)N[C@@H](CCCCN)C(=O)N[C@@H](CC(C)C)C(=O)N[C@@H](CCCCNC(=O)COCCOCCNC(=O)COCCOCCNC(=O)CC[C@H](NC(=O)CCCCCCCCCCCCCCCCC(=O)O)C(=O)O)C(=O)N[C@@H](CCC(N)=O)C(=O)N[C@H](C(=O)N[C@@H](CC(C)C)C(=O)N[C@@H](CC(C)C)C(=O)N[C@@H](CCCCN)C(=O)N[C@@H](CCC(N)=O)C(=O)N[C@@H](CCC(=O)O)C(=O)N[C@@H](CCCNC(=N)N)C(=O)N[C@@H](CCC(N)=O)C(=O)N[C@@H](CCCCN)C(=O)NC(C)(C)C(=O)N[C@@H](CCC(N)=O)C(=O)N[C@@H](CCCNC(=N)N)C(=O)N[C@@H](CCC(=O)O)C(=O)N[C@@H](CCCCN)C(=O)N[C@@H](C)C(=O)N[C@@H](CCC(=O)O)C(=O)N[C@H](C(=O)N[C@@H](CC(N)=O)C(=O)N[C@@H](CCCCN)C(=O)N[C@@H](CCC(N)=O)C(=O)N[C@H](C(=O)N[C@@H](CC(C)C)C(=O)N[C@@H](C)C(=O)N[C@@H](CCC(N)=O)C(=O)N[C@H](C(N)=O)C(C)C)[C@@H](C)CC)[C@@H](C)O)[C@@H](C)CC)[C@@H](C)CC)C(C)C)C(C)C [compound 109] (H-IVLSLDVPIKLK([AEEA-AEEA-γGlu-C18 diacid])QILLKQERQK[Aib]QREKAETNKQILAQV-NH2)
4 | > 100 | 5.4 | 0.18 | – | CC[C@H](C)[C@H](N)C(=O)N[C@H](C(=O)N[C@@H](CC(C)C)C(=O)N[C@@H](CO)C(=O)N[C@@H](CC(C)C)C(=O)N[C@@H](CC(=O)O)C(=O)N[C@H](C(=O)N1CCC[C@H]1C(=O)N[C@H](C(=O)N[C@@H](CCCCN)C(=O)N[C@@H](CC(C)C)C(=O)N[C@@H](CCCCNC(=O)COCCOCCNC(=O)COCCOCCNC(=O)CC[C@H](NC(=O)CCCCCCCCCCCCCCCCC(=O)O)C(=O)O)C(=O)N[C@@H](CCC(N)=O)C(=O)N[C@H](C(=O)N[C@@H](CC(C)C)C(=O)N[C@@H](CC(C)C)C(=O)N[C@@H](CCCCN)C(=O)N[C@@H](CCC(N)=O)C(=O)N[C@@H](CCC(=O)O)C(=O)N[C@@H](CCCNC(=N)N)C(=O)N[C@@H](CCC(N)=O)C(=O)N[C@@H](CCCCN)C(=O)NC(C)(C)C(=O)N[C@@H](CCC(N)=O)C(=O)N[C@@H](CCCNC(=N)N)C(=O)N[C@@H](CCC(N)=O)C(=O)N[C@@H](CCC(N)=O)C(=O)N[C@@H](C)C(=O)N[C@@H](CCC(=O)O)C(=O)N[C@H](C(=O)N[C@@H](CC(N)=O)C(=O)N[C@@H](CCCCN)C(=O)N[C@@H](CCC(N)=O)C(=O)N[C@H](C(=O)N[C@@H](CC(C)C)C(=O)N[C@@H](C)C(=O)N[C@@H](CCC(N)=O)C(=O)N[C@H](C(N)=O)C(C)C)[C@@H](C)CC)[C@@H](C)O)[C@@H](C)CC)[C@@H](C)CC)C(C)C)C(C)C [compound 110] (H-IVLSLDVPIKLK([AEEA-AEEA-γGlu-C18 diacid])QILLKQERQK[Aib]QRQQAETNKQILAQV-NH2; N-terminus assumed)
5 | > 100 | 0.8 | 0.7 | – | CC[C@H](C)[C@H](N)C(=O)N[C@H](C(=O)N[C@@H](CC(C)C)C(=O)N[C@@H](CO)C(=O)N[C@@H](CC(C)C)C(=O)N[C@@H](CC(=O)O)C(=O)N[C@H](C(=O)N1CCC[C@H]1C(=O)N[C@H](C(=O)N[C@@H](CCCCN)C(=O)N[C@@H](CC(C)C)C(=O)N[C@@H](CCCCNC(=O)COCCOCCNC(=O)COCCOCCNC(=O)CC[C@H](NC(=O)CCCCCCCCCCCCCCCCC(=O)O)C(=O)O)C(=O)N[C@@H](CCC(N)=O)C(=O)N[C@H](C(=O)N[C@@H](CC(C)C)C(=O)N[C@@H](CC(C)C)C(=O)N[C@@H](CCCCN)C(=O)N[C@@H](CCC(N)=O)C(=O)N[C@@H](CCC(=O)O)C(=O)N[C@@H](CCCNC(=N)N)C(=O)N[C@@H](CCC(N)=O)C(=O)N[C@@H](CCCCN)C(=O)NC(C)(C)C(=O)N[C@@H](CCC(N)=O)C(=O)N[C@@H](CCCNC(=N)N)C(=O)N[C@@H](CCC(=O)O)C(=O)N[C@@H](CCCCN)C(=O)N[C@@H](C)C(=O)N[C@@H](CCC(=O)O)C(=O)N[C@@H](CCCCN)C(=O)N[C@@H](CC(N)=O)C(=O)N[C@@H](CCCCN)C(=O)N[C@@H](CCC(N)=O)C(=O)N[C@H](C(=O)N[C@@H](CC(C)C)C(=O)N[C@@H](C)C(=O)N[C@@H](CCC(N)=O)C(=O)N[C@H](C(N)=O)C(C)C)[C@@H](C)CC)[C@@H](C)CC)[C@@H](C)CC)C(C)C)C(C)C [compound 116] (H-IVLSLDVPIKLK([AEEA-AEEA-γGlu-C18 diacid])QILLKQERQK[Aib]QREKAEKNKQILAQV-NH2; N-terminus assumed)
